Data taken from PubChem BioAssay AID1259407 (Chemical Carcinogenesis Research Information System (CCRIS), 2018).
Active and inactive are the calls of the source. How the calls were made is not given here.

Test system: CCRIS mutagenicity, Ames/micronucleus/aberration tests
Test: CCRIS mutagenicity studies
[1] = Test System: AMES SALMONELLA TYPHIMURIUM, Strain/Indicator: TA97, Metabolic Activation: NONE, Method: PREINCUBATION
[2] = Test System: AMES SALMONELLA TYPHIMURIUM, Strain/Indicator: TA98, Metabolic Activation: NONE, Method: PREINCUBATION
[3] = Test System: AMES SALMONELLA TYPHIMURIUM, Strain/Indicator: TA100, Metabolic Activation: NONE, Method: PREINCUBATION
[4] = Test System: AMES SALMONELLA TYPHIMURIUM, Strain/Indicator: TA1535, Metabolic Activation: NONE, Method: PREINCUBATION
[5] = Test System: AMES SALMONELLA TYPHIMURIUM, Strain/Indicator: TA98, Metabolic Activation: HAMSTER, LIVER, S-9, AROCLOR 1254 (10%), Method: PREINCUBATION
[6] = Test System: AMES SALMONELLA TYPHIMURIUM, Strain/Indicator: TA98, Metabolic Activation: RAT, LIVER, S-9, AROCLOR 1254 (10%), Method: PREINCUBATION
[7] = Test System: AMES SALMONELLA TYPHIMURIUM, Strain/Indicator: TA100, Metabolic Activation: HAMSTER, LIVER, S-9, AROCLOR 1254 (10%), Method: PREINCUBATION
[8] = Test System: AMES SALMONELLA TYPHIMURIUM, Strain/Indicator: TA100, Metabolic Activation: RAT, LIVER, S-9, AROCLOR 1254 (10%), Method: PREINCUBATION
[9] = Test System: AMES SALMONELLA TYPHIMURIUM, Strain/Indicator: TA1535, Metabolic Activation: HAMSTER, LIVER, S-9, AROCLOR 1254 (10%), Method: PREINCUBATION
[10] = Test System: AMES SALMONELLA TYPHIMURIUM, Strain/Indicator: TA1535, Metabolic Activation: RAT, LIVER, S-9, AROCLOR 1254 (10%), Method: PREINCUBATION
[11] = Test System: AMES SALMONELLA TYPHIMURIUM, Strain/Indicator: TA98, Metabolic Activation: NONE, Method: STANDARD PLATE
[12] = Test System: AMES SALMONELLA TYPHIMURIUM, Strain/Indicator: TA100, Metabolic Activation: NONE, Method: STANDARD PLATE

SMILES | mutagenic call [1] | mutagenic call [2] | mutagenic call [3] | mutagenic call [4] | mutagenic call [5] | mutagenic call [6] | mutagenic call [7] | mutagenic call [8] | mutagenic call [9] | mutagenic call [10] | mutagenic call [11] | mutagenic call [12] | further results
CC(=O)Nc1cccc(C)c1 | inactive; negative | inactive; negative | inactive; negative | inactive; negative | – | – | – | – | – | – | – | – | mutagenic call (Test System: AMES SALMONELLA TYPHIMURIUM, Strain/Indicator: TA97, Metabolic Activation: HAMSTER, LIVER, S-9, AROCLOR 1254 (10 OR 30%), Method: PREINCUBATION): inactive; negative; mutagenic call (Test System: AMES SALMONELLA TYPHIMURIUM, Strain/Indicator: TA97, Metabolic Activation: RAT, LIVER, S-9, AROCLOR 1254 (10 OR 30%), Method: PREINCUBATION): inactive; negative; mutagenic call (Test System: AMES SALMONELLA TYPHIMURIUM, Strain/Indicator: TA98, Metabolic Activation: HAMSTER, LIVER, S-9, AROCLOR 1254 (10 OR 30%), Method: PREINCUBATION): inactive; negative; mutagenic call (Test System: AMES SALMONELLA TYPHIMURIUM, Strain/Indicator: TA98, Metabolic Activation: RAT, LIVER, S-9, AROCLOR 1254 (10 OR 30%), Method: PREINCUBATION): inactive; negative; mutagenic call (Test System: AMES SALMONELLA TYPHIMURIUM, Strain/Indicator: TA100, Metabolic Activation: HAMSTER, LIVER, S-9, AROCLOR 1254 (10 OR 30%), Method: PREINCUBATION): inactive; negative; mutagenic call (Test System: AMES SALMONELLA TYPHIMURIUM, Strain/Indicator: TA100, Metabolic Activation: RAT, LIVER, S-9, AROCLOR 1254 (10 OR 30%), Method: PREINCUBATION): inactive; negative; mutagenic call (Test System: AMES SALMONELLA TYPHIMURIUM, Strain/Indicator: TA1535, Metabolic Activation: HAMSTER, LIVER, S-9, AROCLOR 1254 (10 OR 30%), Method: PREINCUBATION): inactive; negative; mutagenic call (Test System: AMES SALMONELLA TYPHIMURIUM, Strain/Indicator: TA1535, Metabolic Activation: RAT, LIVER, S-9, AROCLOR 1254 (10 OR 30%), Method: PREINCUBATION): inactive; negative
CC1(C)CC(N=C=O)CC(C)(CN=C=O)C1 (stereo not given) | – | inactive; negative | inactive; negative | inactive; negative | inactive; negative | inactive; negative | inactive; negative | inactive; negative | inactive; negative | inactive; negative | – | – | mutagenic call (Test System: AMES SALMONELLA TYPHIMURIUM, Strain/Indicator: TA1537, Metabolic Activation: HAMSTER, LIVER, S-9, AROCLOR 1254 (10%), Method: PREINCUBATION): inactive; negative; mutagenic call (Test System: AMES SALMONELLA TYPHIMURIUM, Strain/Indicator: TA1537, Metabolic Activation: NONE, Method: PREINCUBATION): inactive; negative; mutagenic call (Test System: AMES SALMONELLA TYPHIMURIUM, Strain/Indicator: TA1537, Metabolic Activation: RAT, LIVER, S-9, AROCLOR 1254 (10%), Method: PREINCUBATION): inactive; negative
CC1NC(C(=O)O)Cc2c1[nH]c1ccccc21 (stereo not given) | – | – | – | – | – | – | – | – | – | – | inactive; negative | inactive; negative | mutagenic call (Test System: AMES SALMONELLA TYPHIMURIUM, Strain/Indicator: TA97, Metabolic Activation: NONE, Method: STANDARD PLATE): inactive; negative; mutagenic call (Test System: AMES SALMONELLA TYPHIMURIUM, Strain/Indicator: TA97, Metabolic Activation: RAT, LIVER, S-9, AROCLOR 1254, Method: STANDARD PLATE): inactive; negative; mutagenic call (Test System: AMES SALMONELLA TYPHIMURIUM, Strain/Indicator: TA98, Metabolic Activation: RAT, LIVER, S-9, AROCLOR 1254, Method: STANDARD PLATE): inactive; negative; mutagenic call (Test System: AMES SALMONELLA TYPHIMURIUM, Strain/Indicator: TA100, Metabolic Activation: RAT, LIVER, S-9, AROCLOR 1254, Method: STANDARD PLATE): inactive; negative
CC(=O)Nc1ccccc1N | active; positive | inactive; negative | inactive; negative | inactive; negative | active; positive | active; positive | active; positive | active; positive | active; positive | active; positive | – | – | mutagenic call (Test System: AMES SALMONELLA TYPHIMURIUM, Strain/Indicator: TA97, Metabolic Activation: HAMSTER, LIVER, S-9, AROCLOR 1254 (10%), Method: PREINCUBATION): active; positive; mutagenic call (Test System: AMES SALMONELLA TYPHIMURIUM, Strain/Indicator: TA97, Metabolic Activation: RAT, LIVER, S-9, AROCLOR 1254 (10%), Method: PREINCUBATION): active; positive
CN(C)c1ccc(/C=C/c2ccc([N+](=O)[O-])cc2)cc1 | – | – | – | – | – | – | – | – | – | – | inactive; negative | inactive; negative | mutagenic call (Test System: AMES SALMONELLA TYPHIMURIUM, Strain/Indicator: TA98, Metabolic Activation: HAMSTER, LIVER, S-9, AROCLOR 1254 (10%), Method: STANDARD PLATE): active; positive; mutagenic call (Test System: AMES SALMONELLA TYPHIMURIUM, Strain/Indicator: TA98, Metabolic Activation: RAT, LIVER, S-9, AROCLOR 1254 (10%), Method: STANDARD PLATE): active; positive; mutagenic call (Test System: AMES SALMONELLA TYPHIMURIUM, Strain/Indicator: TA100, Metabolic Activation: HAMSTER, LIVER, S-9, AROCLOR 1254 (10%), Method: STANDARD PLATE): active; positive; mutagenic call (Test System: AMES SALMONELLA TYPHIMURIUM, Strain/Indicator: TA100, Metabolic Activation: RAT, LIVER, S-9, AROCLOR 1254 (10%), Method: STANDARD PLATE): active; positive; mutagenic call (Test System: MOUSE LYMPHOMA, Strain/Indicator: L5178Y (TK+/TK-), Metabolic Activation: NONE, Method: SUSPENSION/PLATE): inactive; negative; mutagenic call (Test System: MOUSE LYMPHOMA, Strain/Indicator: L5178Y (TK+/TK-), Metabolic Activation: RAT, LIVER, S-9, AROCLOR 1254, Method: SUSPENSION/PLATE): active; positive. reevaluation of results: positive
